Reference: patent US20050267156A1, “Broadspectrum 2-amino-benzothiazole sulfonamide hiv protease inhibitors” (Tibotec Pharmaceuticals Ltd., priority 2002, published 2005)
Read-outs that look alike come from different tables or passages of the source.

Tests used:
mock-infected MT4 cells = experiment: Toxicity on mock-infected cells (MTT); type: cell-based
Method: (§1) HIV- or mock-infected MT4 cells were incubated for five days in the presence of various concentrations of the inhibitor. At the end of the incubation period, the replicating virus in the control cultures has killed all HIV-infected cells in the absence of any inhibitor. Cell viability is measured by measuring the concentration of MTT, a yellow, water soluble tetrazolium dye that is converted to a purple, water insoluble formazan in the mitochondria of living cells only. Upon solubilization of the resulting formazan crystals with isopropanol, the absorbance of the solution is monitored at 540 nm. The values correlate directly to the number of living cells remaining in the culture at the completion of the five-day incubation. The inhibitory activity of the compound was monitored on the virus-infected cells and was expressed as EC50 and EC90. These values represent the amount of the compound required to protect 50% and 90%, respectively, of the cells from the cytopathogenic effect of the virus. […] The selectivity index (SI) (ratio CC50/EC50) is an indication of the selectivity of the anti-HIV activity of the inhibitor. Wherever results are reported as e.g. pEC50 or pCC50 values, the result is expressed as the negative logarithm of the result expressed as EC50 or CC50 respectively.

mutant HIV strain A = experiment: microbe, parasite or virus in culture; type: cell-based; conditions: for fold resistance Strain A: FR=EC50 (mutant strain)/EC50 (HIV-1 strain LAI); for pEC50 Strain A: mutant HIV strain A, MT4 cells; for EC50: Human immunodeficiency virus 1, MT4, read-out: pEC50 Strain A, mutant HIV strain A, MT4 cells (converted)
Method: as §1, with “At the end of the incubation period, the replicating virus in the control cultures has killed all HIV-infected cells in the absence of any inhibitor.” left out

mutant HIV strain F = experiment: microbe, parasite or virus in culture; type: cell-based; conditions: for fold resistance Strain F: FR=EC50 (mutant strain)/EC50 (HIV-1 strain LAI); for pEC50 Strain F: mutant HIV strain F, MT4 cells; for EC50: Human immunodeficiency virus 1, MT4, read-out: pEC50 Strain F, mutant HIV strain F, MT4 cells (converted)
Method: as §1, with “At the end of the incubation period, the replicating virus in the control cultures has killed all HIV-infected cells in the absence of any inhibitor.” left out

mutant HIV strain E = experiment: microbe, parasite or virus in culture; type: cell-based; conditions: for fold resistance Strain E: FR=EC50 (mutant strain)/EC50 (HIV-1 strain LAI); for pEC50 Strain E: mutant HIV strain E, MT4 cells; for EC50: Human immunodeficiency virus 1, MT4, read-out: pEC50 Strain E, mutant HIV strain E, MT4 cells (converted)
Method: as §1, with “At the end of the incubation period, the replicating virus in the control cultures has killed all HIV-infected cells in the absence of any inhibitor.” left out

mutant HIV strain B = experiment: microbe, parasite or virus in culture; type: cell-based; conditions: for fold resistance Strain B: FR=EC50 (mutant strain)/EC50 (HIV-1 strain LAI); for pEC50 Strain B: mutant HIV strain B, MT4 cells; for EC50: Human immunodeficiency virus 1, MT4, read-out: pEC50 Strain B, mutant HIV strain B, MT4 cells (converted)
Method: as §1, with “At the end of the incubation period, the replicating virus in the control cultures has killed all HIV-infected cells in the absence of any inhibitor.” left out

mutant HIV strain D = experiment: microbe, parasite or virus in culture; type: cell-based; conditions: for fold resistance Strain D: FR=EC50 (mutant strain)/EC50 (HIV-1 strain LAI); for pEC50 Strain D: mutant HIV strain D, MT4 cells; for EC50: Human immunodeficiency virus 1, MT4, read-out: pEC50 Strain D, mutant HIV strain D, MT4 cells (converted)
Method: as §1, with “At the end of the incubation period, the replicating virus in the control cultures has killed all HIV-infected cells in the absence of any inhibitor.” left out

mutant HIV strain C = experiment: microbe, parasite or virus in culture; type: cell-based; conditions: for fold resistance Strain C: FR=EC50 (mutant strain)/EC50 (HIV-1 strain LAI); for pEC50 Strain C: mutant HIV strain C, MT4 cells; for EC50: Human immunodeficiency virus 1, MT4, read-out: pEC50 Strain C, mutant HIV strain C, MT4 cells (converted)
Method: as §1, with “At the end of the incubation period, the replicating virus in the control cultures has killed all HIV-infected cells in the absence of any inhibitor.” left out

HIV-1 strain LAI = experiment: Cellular anti-HIV assay (MT4/MTT), wild type; type: cell-based; conditions: wild type HIV-1 strain LAI, MT4 cells; for EC50: Human immunodeficiency virus 1, read-out: WT (pEC50) (converted)
Method: as §1, with “The compounds of the present invention were examined for anti-viral activity in a cellular assay. […] The cellular assay was performed according to the following procedure. HIV-” for “HIV-”, “At the end of the incubation period, the replicating virus in the control cultures has killed all HIV-infected cells in the absence of any inhibitor.” left out

Pharmacokinetics in rats = type: in vivo, Whistar rats; conditions: rat
Method: The pharmacokinetic properties of some compounds of formula (I) were tested on rats and dogs. The compounds were evaluated in Whistar rats, source Iffa Credo, weighing approximately 350 g. Before dosing the animals were fasted overnight (approximately 12 h fasting period). The compounds were dissolved in DMSO or PEG 400. The results represented in the table concern the results from the oral or intra-peritoneal dosing of the compounds. Blood was sampled at 30 min, 1 h, 2 h, 3 h, no pre-dose sample was taken. The amount of the compound in the biological sample was determined using LC-MS. In the table below “or” means oral dosing, “ip” means intraperitoneal dosing, “mpk” means mg per kilogram.

[1] = Toxicity on mock-infected cells (MTT); type: cell-based; conditions: human
Method: as §1

[2] = Whistar, blood, ip, 10 mpk, ip, DMSO, results normalized to 10 mpk, read-out: Cmax
[3] = Whistar, blood, po, 10 mpk, or, PEG400, results normalized to 10 mpk, read-out: Cmax

Row | Compound | Tox (pCC50) (mock-infected MT4 cells) | fold resistance Strain A (mutant HIV strain A) | pEC50 Strain A (mutant HIV strain A) | fold resistance Strain F (mutant HIV strain F) | pEC50 Strain F (mutant HIV strain F) | fold resistance Strain E (mutant HIV strain E) | pEC50 Strain E (mutant HIV strain E) | fold resistance Strain B (mutant HIV strain B) | pEC50 Strain B (mutant HIV strain B) | fold resistance Strain D (mutant HIV strain D) | pEC50 Strain D (mutant HIV strain D) | fold resistance Strain C (mutant HIV strain C) | pEC50 Strain C (mutant HIV strain C) | WT (pEC50) (HIV-1 strain LAI) | CC50 at 5 days [1] [nM] | EC50 (mutant HIV strain A) [nM] | EC50 (mutant HIV strain F) [nM] | EC50 (mutant HIV strain E) [nM] | EC50 (mutant HIV strain B) [nM] | EC50 (mutant HIV strain D) [nM] | further results
1 | CC(C)CN(C[C@@H](O)[C@H](Cc1ccccc1)NC(=O)O[C@H]1CCOC1)S(=O)(=O)c1ccc2nc(N)sc2c1 [Compound 13, {(1S,2R)-3-[(2-amino-benzothiazole-6-sulfonyl)-isobutyl-amino]-1-benzyl-2-hydroxypropyl}-carbamic acid(S) (tetrahydro-furan-3-yl)ester] | <4 | 13.5 | 7.39 | 34.7 | 6.98 | 0.9 | 8.57 | 1.9 | 8.24 | 2.5 | 8.13 | 1.3 | 8.42 | 8.52 |  |  |  |  |  |  | 
2 | {(1S,2R)-3-[(2-amino-benzothiazole-6-sulfonyl)-isobutyl-amino]-1-benzyl-2-hydroxypropyl}-carbamic acid(3R,3aS,6aR)-hexahydro-furo[2,3-b]furan-3-yl ester [Compound 2] |  | 0.3 | 8.68 | 0.5 | 8.45 | 0.5 | 8.50 | 0.4 | 8.59 | 0.3 | 8.69 | 0.4 | 8.54 | 8.18 |  |  |  |  |  |  | Tox (pCC50) (mock-infected MT4 cells; mock-infected MT4 cells, pCC50): 4.07; Cmax (Pharmacokinetics in rats; ip, DMSO, results normalized to 10 mpk): 427 ng/mL; Cmax (Pharmacokinetics in rats; or, PEG400, results normalized to 10 mpk): 52 ng/mL
3 | CNc1nc2ccc(S(=O)(=O)N(CC(C)C)C[C@@H](O)[C@H](Cc3ccccc3)NC(=O)COc3c(C)cc(CN)cc3C)cc2s1 [Compound 25, 2-(4-aminomethyl-2,6-dimethyl-phenoxy)-N-{(1S,2R)-1-benzyl-2-hydroxy-3-[isobutyl-(2-methylamino-benzothiazole-6-sulfonyl)-amino]-propyl}-acetamide] |  | 10.7 |  | 117.5 |  | 4.3 |  | 4.9 |  | 10.0 |  | 4.4 |  |  | 14100 | 43.7 | 479 | 17.4 | 20 | 40.7 | EC50 (mutant HIV strain C): 17.8 nM; EC50 (HIV-1 strain LAI): 4.07 nM; Cmax (Pharmacokinetics in rats; [2]): 453 ng/mL
4 | CNc1nc2ccc(S(=O)(=O)N(CC(C)C)C[C@@H](O)[C@H](Cc3ccccc3)NC(=O)O[C@H]3CO[C@H]4OCC[C@H]43)cc2s1 [Compound 5, {(1S,2R)-1-benzyl-2-hydroxy-3-[isobutyl-(2-methylamino-benzothiazole-6-sulfonyl)-amino]-propyl}-carbamic acid(3R,3aS,6aR)-(hexahydro-furo[2,3-b]furan-3-yl)ester] | 4.15 | 0.8 | 9.37 | 3.5 | 8.71 |  |  | 0.5 | 9.57 |  |  | 0.4 | 9.71 | 9.26 |  |  |  |  |  |  | 
5 | CNc1nc2ccc(S(=O)(=O)N(CC(C)C)C[C@@H](O)[C@H](Cc3ccccc3)NC(=O)OC3COC4OCCC34)cc2s1 (stereo partly drawn) [Compound 4, {(1S,2R)-1-benzyl-2-hydroxy-3-[isobutyl-(2-methylamino-benzothiazole-6-sulfonyl)-amino]-propyl}-carbamic acid hexahydro-furo[2,3-b]furan-3-yl ester] |  | 7.9 |  | 19.1 |  | 2.8 |  | 2.6 |  | 2.6 |  | 2.6 |  |  | > 10000 | 3.63 | 8.71 | 1.29 | 1.17 | 1.17 | EC50 (mutant HIV strain C): 1.17 nM; EC50 (HIV-1 strain LAI): 0.457 nM; Cmax (Pharmacokinetics in rats; [2]): 1670 ng/mL; Cmax (Pharmacokinetics in rats; Whistar, blood, po, 10 mpk, or, DMSO, results normalized to 10 mpk, read-out: Cmax): 348 ng/mL; Cmax (Pharmacokinetics in rats; [3]): 225 ng/mL
6 | CNc1nc2ccc(S(=O)(=O)N(CC(C)C)C[C@@H](O)[C@H](Cc3ccccc3)NC(=O)O[C@H]3CCOC3)cc2s1.O=C(O)C(F)(F)F [Compound 22, {(1S,2R)-1-benzyl-2-hydroxy-3-[isobutyl-(2-methylamino-benzothiazole-6-sulfonyl)-amino]-propyl}-carbamic acid(S)(tetrahydro-furan-3-yl)ester trifluoroacetate] | <4 | 81.3 | 6.93 | 549.5 | 6.1 | 3.0 | 8.36 | 10.2 | 7.83 | 11.5 | 7.78 | 4.5 | 8.19 | 8.84 |  |  |  |  |  |  | 
7 | CNc1nc2ccc(S(=O)(=O)N(CC(C)C)C[C@@H](O)[C@H](Cc3ccccc3)NC(=O)COc3c(C)cccc3C)cc2s1 [Compound 15, N-{(1S,2R)-1-benzyl-2-hydroxy-3-[isobutyl-(2-methylamino-benzothiazole-6-sulfonyl)-amino]-propyl}-2-(2,6-dimethyl-phenoxy)-acetamide] |  | 4.6 |  | 20.4 |  | 3.2 |  | 2.6 |  | 4.5 |  | 3.5 |  |  | 91200 | 51.3 | 229 | 36.3 | 28.8 | 50.1 | EC50 (mutant HIV strain C): 39.8 nM; EC50 (HIV-1 strain LAI): 11.2 nM; Cmax (Pharmacokinetics in rats; [2]): 86 ng/mL; Cmax (Pharmacokinetics in rats; [3]): 10 ng/mL
